From ChEMBL document CHEMBL1240419, “Synthesis and antibacterial activity of 3-O-carbamoyl derivatives of 6,11-di-O-methylerythromycin A: a novel class of acylides” (2010)
Values after ≈ are worked out from the molar mass of the structure shown.

Legend:
Format in all cases: functional
Staphylococcus aureus [1] = test: Antibacterial activity against erythromycin-susceptible Staphylococcus aureus ATCC 25923 by broth microdilution method
Staphylococcus aureus [2] = test: Antibacterial activity against erythromycin-resistant, methicillin-susceptible Staphylococcus aureus A265 by broth microdilution method
Staphylococcus aureus [3] = test: Antibacterial activity against erythromycin, methicillin-resistant Staphylococcus aureus A333 by broth microdilution method
Streptococcus pneumoniae [4] = test: Antibacterial activity against erythromycin-susceptible Streptococcus pneumoniae ATCC 49619 by broth microdilution method
Streptococcus pneumoniae [5] = test: Antibacterial activity against erythromycin-resistant Streptococcus pneumoniae 3469 by broth microdilution method
Haemophilus influenzae [6] = test: Antibacterial activity against ampicillin-susceptible Haemophilus influenzae ATCC 49247 by broth microdilution method
Haemophilus influenzae [7] = test: Antibacterial activity against ampicillin-resistant Haemophilus influenzae 3300 by broth microdilution method

Compound	MIC (Staphylococcus aureus [1]) [µg/mL]	MIC (Staphylococcus aureus [2]) [µg/mL]	MIC (Staphylococcus aureus [3]) [µg/mL]	MIC (Streptococcus pneumoniae [4]) [µg/mL]	MIC (Streptococcus pneumoniae [5]) [µg/mL]	MIC (Haemophilus influenzae [6]) [µg/mL]	MIC (Haemophilus influenzae [7]) [µg/mL]
CC[C@H]1OC(=O)[C@H](C)[C@@H](OC(=O)NCc2ccc(OC)cc2)[C@H](C)[C@@H](O[C@@H]2O[C@H](C)C[C@H](N(C)C)[C@H]2O)[C@](C)(OC)C[C@@H](C)C(=O)[C@@H](C)[C@@H](OC)[C@]1(C)O	0.125 (≈ 0.163 µM)	0.125 (≈ 0.163 µM)	> 64	0.5 (≈ 0.652 µM)	0.5 (≈ 0.652 µM)	1 (≈ 1.3 µM)	0.5 (≈ 0.652 µM)
CC[C@H]1OC(=O)[C@H](C)[C@@H](OC(=O)NCc2ccc(F)cc2)[C@H](C)[C@@H](O[C@@H]2O[C@H](C)C[C@H](N(C)C)[C@H]2O)[C@](C)(OC)C[C@@H](C)C(=O)[C@@H](C)[C@@H](OC)[C@]1(C)O	4 (≈ 5.3 µM)	0.125 (≈ 0.166 µM)	> 64	0.125 (≈ 0.166 µM)	0.125 (≈ 0.166 µM)	4 (≈ 5.3 µM)	4 (≈ 5.3 µM)
CC[C@H]1OC(=O)[C@H](C)[C@@H](OC(=O)NCc2ccc(Cl)cc2)[C@H](C)[C@@H](O[C@@H]2O[C@H](C)C[C@H](N(C)C)[C@H]2O)[C@](C)(OC)C[C@@H](C)C(=O)[C@@H](C)[C@@H](OC)[C@]1(C)O	4 (≈ 5.19 µM)	0.125 (≈ 0.162 µM)	> 64	0.125 (≈ 0.162 µM)	0.5 (≈ 0.648 µM)	2 (≈ 2.59 µM)	4 (≈ 5.19 µM)
CC[C@H]1OC(=O)[C@H](C)[C@@H](OC(=O)NCc2ccc(Br)cc2)[C@H](C)[C@@H](O[C@@H]2O[C@H](C)C[C@H](N(C)C)[C@H]2O)[C@](C)(OC)C[C@@H](C)C(=O)[C@@H](C)[C@@H](OC)[C@]1(C)O	0.125 (≈ 0.153 µM)	0.125 (≈ 0.153 µM)	32 (≈ 39.2 µM)	0.125 (≈ 0.153 µM)	0.125 (≈ 0.153 µM)	2 (≈ 2.45 µM)	2 (≈ 2.45 µM)
CC[C@H]1OC(=O)[C@H](C)[C@@H](OC(=O)NCc2ccc(O)cc2)[C@H](C)[C@@H](O[C@@H]2O[C@H](C)C[C@H](N(C)C)[C@H]2O)[C@](C)(OC)C[C@@H](C)C(=O)[C@@H](C)[C@@H](OC)[C@]1(C)O	1 (≈ 1.33 µM)	0.25 (≈ 0.332 µM)	> 64	1 (≈ 1.33 µM)	32 (≈ 42.5 µM)	1 (≈ 1.33 µM)	1 (≈ 1.33 µM)
CC[C@H]1OC(=O)[C@H](C)[C@@H](OC(=O)NCc2ccc(C)cc2)[C@H](C)[C@@H](O[C@@H]2O[C@H](C)C[C@H](N(C)C)[C@H]2O)[C@](C)(OC)C[C@@H](C)C(=O)[C@@H](C)[C@@H](OC)[C@]1(C)O	0.25 (≈ 0.333 µM)	0.125 (≈ 0.166 µM)	64 (≈ 85.2 µM)	0.125 (≈ 0.166 µM)	0.25 (≈ 0.333 µM)	4 (≈ 5.33 µM)	4 (≈ 5.33 µM)
CC[C@H]1OC(=O)[C@H](C)[C@@H](OC(=O)NCCc2ccccc2)[C@H](C)[C@@H](O[C@@H]2O[C@H](C)C[C@H](N(C)C)[C@H]2O)[C@](C)(OC)C[C@@H](C)C(=O)[C@@H](C)[C@@H](OC)[C@]1(C)O	8 (≈ 10.7 µM)	8 (≈ 10.7 µM)	> 64	4 (≈ 5.33 µM)	64 (≈ 85.2 µM)	4 (≈ 5.33 µM)	4 (≈ 5.33 µM)
CC[C@H]1OC(=O)[C@H](C)[C@@H](OC(=O)NCCc2ccc(OC)cc2)[C@H](C)[C@@H](O[C@@H]2O[C@H](C)C[C@H](N(C)C)[C@H]2O)[C@](C)(OC)C[C@@H](C)C(=O)[C@@H](C)[C@@H](OC)[C@]1(C)O	4 (≈ 5.12 µM)	8 (≈ 10.2 µM)	> 64	0.125 (≈ 0.16 µM)	0.125 (≈ 0.16 µM)	16 (≈ 20.5 µM)	16 (≈ 20.5 µM)
CC[C@H]1OC(=O)[C@H](C)[C@@H](OC(=O)NCCc2ccc(OC)c(OC)c2)[C@H](C)[C@@H](O[C@@H]2O[C@H](C)C[C@H](N(C)C)[C@H]2O)[C@](C)(OC)C[C@@H](C)C(=O)[C@@H](C)[C@@H](OC)[C@]1(C)O	2 (≈ 2.47 µM)	8 (≈ 9.86 µM)	> 64	0.125 (≈ 0.154 µM)	0.25 (≈ 0.308 µM)	32 (≈ 39.5 µM)	32 (≈ 39.5 µM)
CC[C@H]1OC(=O)[C@H](C)[C@@H](OC(=O)NCCc2ccc(O)cc2)[C@H](C)[C@@H](O[C@@H]2O[C@H](C)C[C@H](N(C)C)[C@H]2O)[C@](C)(OC)C[C@@H](C)C(=O)[C@@H](C)[C@@H](OC)[C@]1(C)O	4 (≈ 5.22 µM)	2 (≈ 2.61 µM)	> 64	0.25 (≈ 0.326 µM)	0.25 (≈ 0.326 µM)	8 (≈ 10.4 µM)	8 (≈ 10.4 µM)
CC[C@H]1OC(=O)[C@H](C)[C@@H](OC(=O)NCCc2ccc(F)cc2)[C@H](C)[C@@H](O[C@@H]2O[C@H](C)C[C@H](N(C)C)[C@H]2O)[C@](C)(OC)C[C@@H](C)C(=O)[C@@H](C)[C@@H](OC)[C@]1(C)O	2 (≈ 2.6 µM)	2 (≈ 2.6 µM)	32 (≈ 41.6 µM)	0.125 (≈ 0.163 µM)	0.125 (≈ 0.163 µM)	8 (≈ 10.4 µM)	8 (≈ 10.4 µM)
CC[C@H]1OC(=O)[C@H](C)[C@@H](OC(=O)NCCc2ccccc2F)[C@H](C)[C@@H](O[C@@H]2O[C@H](C)C[C@H](N(C)C)[C@H]2O)[C@](C)(OC)C[C@@H](C)C(=O)[C@@H](C)[C@@H](OC)[C@]1(C)O	8 (≈ 10.4 µM)	16 (≈ 20.8 µM)	64 (≈ 83.2 µM)	0.125 (≈ 0.163 µM)	0.125 (≈ 0.163 µM)	16 (≈ 20.8 µM)	16 (≈ 20.8 µM)
